Results from US20260284079A1, “LIPID PRODRUGS OF ALLOPR[…] USES THEREOF” (Seaport Therapeutics, Inc., priority 2023, published 2026).

Experiment: Safety and tolerability, treatment-emergent adverse events (Example 1)
Assay type: in vivo, human
Settings: for Any TEAE, subjects (%): 9 subjects
Excerpt: As used herein, the term “Adverse Event” refers to any event, side-effect, or other untoward medical occurrence in a subject (i.e., a clinical study participant) administered a pharmaceutical product. […] As used herein, a “treatment-emergent adverse event” or “TEAE” refers to an adverse event not present prior to treatment (i.e., receiving a dose of Compound 1) or an already present event that worsens in intensity or frequency following treatment. TEAEs may be classified by system organ class (SOC); an exemplary SOC is Nervous System Disorders. Examples of Nervous System Disorder TEAEs include somnolence, headache, dizziness, lethargy, balance disorder, and cognitive disorder.
A three-part study to assess the safety, tolerability, and PK/PD properties of Compound 1 in humans was performed. Part 1 was a randomized, double-blinded, placebo-controlled, single ascending dose (SAD) phase. Part 2 was a randomized, open-label phase to assess the effect of food on Compound 1. Part 3 was a randomized, double-blinded, placebo-controlled multiple-ascending dose phase.
Part 1 Primary Objectives: to evaluate the safety and tolerability of single oral doses of Compound 1 and to determine the maximum tolerated dose (MTD) following ascending single oral doses of Compound 1. Part 1 Primary Endpoints: incidence, severity, and duration of treatment-emergent adverse events (TEAEs), serious adverse events (SAEs), and incidence of clinically significant vital signs, pulse oximetry, ECGs, safety laboratory, or physical examination findings and MTD of Compound 1 in healthy subjects.
The safety, tolerability, and PK of Compound 1 administered as multiple doses (up to 7 days) was determined. Subjects in cohorts 4-6 were administered Compound 1 once daily in the morning (QAM) in a fed state. Subjects in cohorts 7-8 were administered Compound 1 once daily in the evening (QHS) in a fed state.
Part 3 Primary Objective: to evaluate the safety and tolerability of multiple oral doses of Compound 1 and to determine the maximum tolerated dose of Compound 1 following multiple oral doses. Part 3 Primary Endpoints: incidence, severity, and duration of treatment-emergent adverse events, […], and incidence of clinically significant vital signs, pulse oximetry, ECGs, safety laboratory, or physical examination findings, and the maximum tolerated dose of Compound 1 in healthy subjects.

Q: What does the source list for `CCCCCCCC(=O)OCC(COC(=O)CCCCCCC)OC(=O)CC(C)CC(=O)OCOC(=O)O[C@@H]1CC[C@@]2(C)[C@@H](CC[C@@H]3[C@@H]2CC[C@]2(C)[C@@H](C(C)=O)CC[C@@H]32)C1` (stereo partly drawn) [Compound 1]?
A: tolerability across dose levels tested (Example 1, Parts 1-3): generally well tolerated; TEAE Abnormal Dreams (Psychiatric Disorders), subjects (%) (MAD Cohort 4, 250 mg QAM): 0; TEAE Balance Disorder (Nervous System Disorders), subjects (%) (MAD Cohort 4, 250 mg QAM): 0; TEAE Cognitive Disorder (Nervous System Disorders), subjects (%) (MAD Cohort 4, 250 mg QAM): 0; TEAE Diarrhoea (Gastrointestinal Disorders), subjects (%) (MAD Cohort 4, 250 mg QAM): 0; TEAE Disturbance in attention (Nervous System Disorders), subjects (%) (MAD Cohort 4, 250 mg QAM): 0; TEAE Dizziness (Nervous System Disorders), subjects (%) (MAD Cohort 4, 250 mg QAM): 0; TEAE Euphoric Mood (Psychiatric Disorders), subjects (%) (MAD Cohort 4, 250 mg QAM): 0; TEAE Fatigue (General Disorders and Administration Site Conditions), subjects (%) (MAD Cohort 4, 250 mg QAM): 0; TEAE Hallucination, Visual (Psychiatric Disorders), subjects (%) (MAD Cohort 4, 250 mg QAM): 0; TEAE Headache (Nervous System Disorders), subjects (%) (MAD Cohort 4, 250 mg QAM): 0; TEAE Lethargy (Nervous System Disorders), subjects (%) (MAD Cohort 4, 250 mg QAM): 0; TEAE Rhinorrhoea (Respiratory, Thoracic, and Mediastinal Disorders), subjects (%) (MAD Cohort 4, 250 mg QAM): 0; TEAE Sedation (Nervous System Disorders), subjects (%) (MAD Cohort 4, 250 mg QAM): 0; TEAE Somnolence (Nervous System Disorders), subjects (%) (MAD Cohort 4, 250 mg QAM): 7 (77.8%); Any TEAE, subjects (%) (MAD Cohort 4, 250 mg QAM): 7 (77.8%); TEAE Abnormal Dreams (Psychiatric Disorders), subjects (%) (MAD Cohort 5, 375 mg QAM): 1 (11.1%); TEAE Balance Disorder (Nervous System Disorders), subjects (%) (MAD Cohort 5, 375 mg QAM): 0; TEAE Cognitive Disorder (Nervous System Disorders), subjects (%) (MAD Cohort 5, 375 mg QAM): 1 (11.1%); TEAE Diarrhoea (Gastrointestinal Disorders), subjects (%) (MAD Cohort 5, 375 mg QAM): 0; TEAE Disturbance in attention (Nervous System Disorders), subjects (%) (MAD Cohort 5, 375 mg QAM): 0; TEAE Dizziness (Nervous System Disorders), subjects (%) (MAD Cohort 5, 375 mg QAM): 0; TEAE Euphoric Mood (Psychiatric Disorders), subjects (%) (MAD Cohort 5, 375 mg QAM): 0; TEAE Fatigue (General Disorders and Administration Site Conditions), subjects (%) (MAD Cohort 5, 375 mg QAM): 0; TEAE Hallucination, Visual (Psychiatric Disorders), subjects (%) (MAD Cohort 5, 375 mg QAM): 0; TEAE Headache (Nervous System Disorders), subjects (%) (MAD Cohort 5, 375 mg QAM): 0; TEAE Lethargy (Nervous System Disorders), subjects (%) (MAD Cohort 5, 375 mg QAM): 0; TEAE Rhinorrhoea (Respiratory, Thoracic, and Mediastinal Disorders), subjects (%) (MAD Cohort 5, 375 mg QAM): 0; TEAE Sedation (Nervous System Disorders), subjects (%) (MAD Cohort 5, 375 mg QAM): 0; TEAE Somnolence (Nervous System Disorders), subjects (%) (MAD Cohort 5, 375 mg QAM): 6 (66.7%); Any TEAE, subjects (%) (MAD Cohort 5, 375 mg QAM): 6 (66.7%); TEAE Abnormal Dreams (Psychiatric Disorders), subjects (%) (MAD Cohort 6, 500 mg QAM): 0; TEAE Balance Disorder (Nervous System Disorders), subjects (%) (MAD Cohort 6, 500 mg QAM): 7 (77.8%); TEAE Cognitive Disorder (Nervous System Disorders), subjects (%) (MAD Cohort 6, 500 mg QAM): 4 (44.4%); TEAE Diarrhoea (Gastrointestinal Disorders), subjects (%) (MAD Cohort 6, 500 mg QAM): 0; TEAE Disturbance in attention (Nervous System Disorders), subjects (%) (MAD Cohort 6, 500 mg QAM): 1 (11.1%); TEAE Dizziness (Nervous System Disorders), subjects (%) (MAD Cohort 6, 500 mg QAM): 1 (11.1%); TEAE Euphoric Mood (Psychiatric Disorders), subjects (%) (MAD Cohort 6, 500 mg QAM): 1 (11.1%); TEAE Fatigue (General Disorders and Administration Site Conditions), subjects (%) (MAD Cohort 6, 500 mg QAM): 0; TEAE Hallucination, Visual (Psychiatric Disorders), subjects (%) (MAD Cohort 6, 500 mg QAM): 1 (11.1%); TEAE Headache (Nervous System Disorders), subjects (%) (MAD Cohort 6, 500 mg QAM): 0; TEAE Lethargy (Nervous System Disorders), subjects (%) (MAD Cohort 6, 500 mg QAM): 1 (11.1%); TEAE Rhinorrhoea (Respiratory, Thoracic, and Mediastinal Disorders), subjects (%) (MAD Cohort 6, 500 mg QAM): 0; TEAE Sedation (Nervous System Disorders), subjects (%) (MAD Cohort 6, 500 mg QAM): 0; TEAE Somnolence (Nervous System Disorders), subjects (%) (MAD Cohort 6, 500 mg QAM): 9 (100%); Any TEAE, subjects (%) (MAD Cohort 6, 500 mg QAM): 9 (100%); TEAE Abnormal Dreams (Psychiatric Disorders), subjects (%) (MAD Cohort 7, 375 mg QHS): 0; TEAE Balance Disorder (Nervous System Disorders), subjects (%) (MAD Cohort 7, 375 mg QHS): 2; TEAE Cognitive Disorder (Nervous System Disorders), subjects (%) (MAD Cohort 7, 375 mg QHS): 2 (22.2%); TEAE Diarrhoea (Gastrointestinal Disorders), subjects (%) (MAD Cohort 7, 375 mg QHS): 1 (11.1%); TEAE Disturbance in attention (Nervous System Disorders), subjects (%) (MAD Cohort 7, 375 mg QHS): 1 (11.1%); TEAE Dizziness (Nervous System Disorders), subjects (%) (MAD Cohort 7, 375 mg QHS): 1 (11.1%); TEAE Euphoric Mood (Psychiatric Disorders), subjects (%) (MAD Cohort 7, 375 mg QHS): 1 (11.1%); TEAE Fatigue (General Disorders and Administration Site Conditions), subjects (%) (MAD Cohort 7, 375 mg QHS): 0; TEAE Hallucination, Visual (Psychiatric Disorders), subjects (%) (MAD Cohort 7, 375 mg QHS): 0; TEAE Headache (Nervous System Disorders), subjects (%) (MAD Cohort 7, 375 mg QHS): 1 (11.1%); TEAE Lethargy (Nervous System Disorders), subjects (%) (MAD Cohort 7, 375 mg QHS): 0; TEAE Rhinorrhoea (Respiratory, Thoracic, and Mediastinal Disorders), subjects (%) (MAD Cohort 7, 375 mg QHS): 0; TEAE Sedation (Nervous System Disorders), subjects (%) (MAD Cohort 7, 375 mg QHS): 0; TEAE Somnolence (Nervous System Disorders), subjects (%) (MAD Cohort 7, 375 mg QHS): 5 (55.6%); Any TEAE, subjects (%) (MAD Cohort 7, 375 mg QHS): 6 (66.7%); TEAE Abnormal Dreams (Psychiatric Disorders), subjects (%) (MAD Cohort 8, 375 mg QHS): 0; TEAE Balance Disorder (Nervous System Disorders), subjects (%) (MAD Cohort 8, 375 mg QHS): 0; TEAE Cognitive Disorder (Nervous System Disorders), subjects (%) (MAD Cohort 8, 375 mg QHS): 0; TEAE Diarrhoea (Gastrointestinal Disorders), subjects (%) (MAD Cohort 8, 375 mg QHS): 0; TEAE Disturbance in attention (Nervous System Disorders), subjects (%) (MAD Cohort 8, 375 mg QHS): 0; TEAE Dizziness (Nervous System Disorders), subjects (%) (MAD Cohort 8, 375 mg QHS): 0; TEAE Euphoric Mood (Psychiatric Disorders), subjects (%) (MAD Cohort 8, 375 mg QHS): 0; TEAE Fatigue (General Disorders and Administration Site Conditions), subjects (%) (MAD Cohort 8, 375 mg QHS): 0; TEAE Hallucination, Visual (Psychiatric Disorders), subjects (%) (MAD Cohort 8, 375 mg QHS): 0; TEAE Headache (Nervous System Disorders), subjects (%) (MAD Cohort 8, 375 mg QHS): 0; TEAE Lethargy (Nervous System Disorders), subjects (%) (MAD Cohort 8, 375 mg QHS): 0; TEAE Rhinorrhoea (Respiratory, Thoracic, and Mediastinal Disorders), subjects (%) (MAD Cohort 8, 375 mg QHS): 0; TEAE Sedation (Nervous System Disorders), subjects (%) (MAD Cohort 8, 375 mg QHS): 1 (11.1%); TEAE Somnolence (Nervous System Disorders), subjects (%) (MAD Cohort 8, 375 mg QHS): 1 (11.1%); Any TEAE, subjects (%) (MAD Cohort 8, 375 mg QHS): 2 (22.2%); effect of food on safety or tolerability (Part 2, 140 mg): Food did not impact safety or tolerability; most common adverse event (most frequently at doses greater than or equal to 500 mg): somnolence
